# Experimental data taken from US20240368230A1, “CELL-PENETRATING PEPTIDES COMPRISING MULTIPLE 5-MER ALPHA-HELIX FRAGMENTS AND USES THEREOF” (ArtProBio Co., Ltd., priority 2023, published 2024).
# Entries after “also recorded” stand apart in the source; their conditions may differ. Where a SMILES comes first, the peptide text is derived from it.
# Legend:
# [1] = system: BALB/c nude mice; assay: In-vivo fluorescence imaging (IVIS) of living mice, targeting; details: FAM-labeled
# Experimental: All animal experimental procedures including sample administration and euthanasia were performed in accordance with the strict guidelines of the Yonsei University Health System Institutional Animal Care and Use Committee. Female 7-week BALB/c nude mice were purchased from Orient Bio Company (Korea). Fluorescence-labeled peptide (sample) (10 mg/kg) was injected via the lateral tail vein of the mice. Fluorescence images were acquired at different times (0, 4, 8 and 12 hours) using an in-vivo imaging system (IVIS; PerkinElmer, USA) and the images were analyzed with the Living Image software (PerkinElmer).
# Female 7-week-old BALB/c nude mice were injected IV (intravenously) with the cell-penetrating peptide prepared in Example 10 (CPP10) at 10 mg/kg or 1 mg/kg via the lateral tail vein and imaged using IVIS (in-vivo imaging system) (PerkinElmer, USA) 4 hours later. The images were analyzed with the Living Image software (PerkinElmer). The mice were analyzed from the top, bottom (belly) and side positions (FIG. 44A). Then, after administering the same volume of the cell-penetrating peptide prepared in Example 10 (CPP10) at 10 mg/kg via IV (intravenous) or IP (intraperitoneal) injection, the mice were imaged 4 hours later (FIG. 44B).
# Next, female 7-week-old BALB/c nude mice were injected IV (intravenously) with the cell-penetrating peptide of Example 10 (CPP10), the cell-penetrating peptide of Example 11 (CPP11) or the cell-penetrating peptide of Example 14 (CPP11d) at 10 mg/kg via the lateral tail vein, and they were imaged 30 minutes and 6 hours later using IVIS (in-vivo imaging system) (PerkinElmer, USA). The images were analyzed with the Living Image software (PerkinElmer) (FIG. 44C). In FIGS. 44A and 44B, the cell-penetrating peptides were labeled with TAMRA (5 (6)-carboxytetramethylrhodamine). In FIG. 44C, the cell-penetrating peptides were labeled with FAM.
# The images were analyzed with the Living Image software (PerkinElmer) (FIGS. 50 and 51).
# The cell-penetrating peptide prepared in Example 11 (CPP11) was also administered at the same concentration and then analyzed by IVIS 1 hour later (FIG. 51). The cell-penetrating peptide was used after labeling with FAM.
# 4 hours later, the mice were imaged using IVIS (in-vivo imaging system) (PerkinElmer, USA) and the images were analyzed with the Living Image software (PerkinElmer) (FIG. 53).
# The cell-penetrating peptide prepared in Example 11 (CPP11) was also administered at the same concentration and then analyzed by IVIS 1 hour later (FIG. 53). The cell-penetrating peptide was used after labeling with FAM.
# Female 7-week-old BALB/c nude mice were injected IV (intravenously) with 200 μL of the cell-penetrating peptide of Example 11 (CPP11) or the existing cell-penetrating peptides (Rev ARM, Tat, penetratin and R8) at 5 mg/kg via the lateral tail vein. 4 hours later, the mice were imaged using IVIS (in-vivo imaging system) (PerkinElmer, USA) and the images were analyzed with the Living Image software (PerkinElmer) (FIGS. 54 and 55). The cell-penetrating peptides were used after labeling with FAM.
# [2] = system: HeLa cells; assay: Cytotoxicity analysis with WST-8 reagent; details: 24 hours, various concentrations
# Experimental: Cytotoxicity was analyzed using the WST-8 (5-(2,4-disulfophenyl)-3-(2-methoxy-4-nitrophenyl)-2-(4-nitrophenyl)-2H-tetrazolium, water-soluble tetrazolium). First, HeLa cells were inoculated onto a 96-well plate (5,000 cells/well) and cultured for 24 hours in a DMEM medium containing 10% FBS. After washing with PBS, the peptide (sample) of various concentrations was added to Opti-MEM. 24 hours later, the WST-8 reagent was added and incubation was conducted for 1 hour. Then, WST-8 formazan was quantified using a Victor X5 multilabel plate reader (Perkin Elmer, USA).
# [3] = system: HeLa cells; assay: Flow cytometry cellular uptake efficiency, HeLa; assay type: cell-based
# Experimental: (§1) After washing with PBS, the cells were treated with the fluorescence-labeled peptide (sample) for 4 hours. Then, after washing twice with PBS, the cells were incubated with trypsin (1 mg/mL) for 15 minutes and the peptide bound to the cell surface was removed. The cells were centrifuged at 1,200 rpm for 5 minutes, washed twice with PBS and then suspended in a PBS buffer containing 10% non-enzymatic cell dissociation solution. The fluorescence intensity of the internalized peptide was measured using a BD LSR II flow cytometer (BD Biosciences, USA).
# (§2) The cell-penetrating peptides (CPP10, CPP11 and Tat) were labeled with FAM (5 (6)-carboxyfluorescein) at the N-terminal. MFI stands for mean fluorescence intensity. Untreated cells were used as control groups (cell only). The cellular uptake efficiency refers to the degree of penetration into cells.
# Flow cytometry was performed after treating Hela cells with the cell-penetrating peptide prepared in Example 11 (CPP11) of different concentrations (4 μM, 30 μM, 60 μM, 90 μM, 120 μM, 270 μM and 500 μM).
# [4] = system: HCT116 cells; assay: Flow cytometry cellular uptake efficiency, HCT116; assay type: cell-based; details: HCT116, 30 μM, 4 hours, FAM-labeled, MFI
# Experimental: as §1, §2
# [5] = system: 293T cells; assay: Flow cytometry cellular uptake efficiency, 293T; assay type: cell-based; details: 30 μM, 4 hours, FAM-labeled, MFI
# Experimental: as §1, §2
# [6] = CD spectroscopy of cell-penetrating peptides (helicity)
# Experimental: The concentration of peptides/proteins was 5-20 μM in general. Spectra were obtained using a Jasco J-1500 CD spectrometer (JASCO, Japan) or a Chirascan CD spectrometer (Applied Photophysics, UK). Scanning was carried out using a cuvette with a path length of 1 mm. MRE (mean residue ellipticity) was calculated per amino acid residue.
# The cell-penetrating peptides (CPP1 TO 13 and CPP11d) were dissolved respectively in 10 mM potassium phosphate. The analysis was performed under the condition of pH 7.4 and 20° C.
# [7] = CD equilibrium thermal unfolding; assay type: physicochemical; details: CD at 4-84° C., two-state coil-helix transition
# Experimental: For the cell-penetrating peptide prepared in Example 11 (CPP11), CD spectra were measured under various temperature conditions (4° C., 20° C., 36° C., 52° C., 68° C. and 84° C.) to analyze thermal stability through equilibrium thermal unfolding.
# [8] = system: HeLa cells; assay: Cellular localization by CLSM; assay type: cell-based; details: 10 μM FAM-labeled, 2 hours, DAPI
# Experimental: A DMEM medium containing 10% FBS and an 8-well Lab-Tek II chamber slide (Thermo Fisher Scientific, USA) were prepared. […] […] The cultured cells were washed 5 times with PBS. The living cells were visualized using an LSM 880 confocal microscope (Carl Zeiss, Germany).
# The cell-penetrating peptides were labeled with FAM.
# [9] = system: BALB/c nude mice; assay: IVIS imaging of extracted organs, head and cochlea after IV injection; assay type: in vivo
# Experimental: After extracting major organs (ear, brain, heart, lung, liver, spleen and kidney) from the euthanized experimental animals, the tissues were imaged using IVIS (in-vivo imaging system) (PerkinElmer, USA) and the images were analyzed with the Living Image software (PerkinElmer).
# [10] = extracted organs, IV 10 mg/kg, 4 hours
compound,measurement,setting,value
C[C@H](NC(=O)[C@H](CCC(N)=O)NC(=O)C(C)(C)NC(=O)[C@H](C)NC(=O)C(C)(C)NC(=O)[C@H](CC(N)=O)NC(=O)[C@H](CCCNC(=N)N)NC(=O)[C@H](CCCNC(=N)N)NC(=O)[C@H](C)NC(=O)[C@H](CCC(N)=O)NC(=O)C(C)(C)NC(=O)[C@H](C)NC(=O)C(C)(C)NC(=O)[C@H](CC(N)=O)NC(=O)[C@H](CCCNC(=N)N)NC(=O)[C@H](CCCNC(=N)N)NC(=O)[C@H](C)NC(=O)[C@H](CCC(N)=O)NC(=O)C(C)(C)NC(=O)[C@H](C)NC(=O)C(C)(C)NC(=O)[C@H](CC(N)=O)NC(=O)[C@H](CCCNC(=N)N)NC(=O)[C@H](CCCNC(=N)N)NC(=O)[C@H](C)NC(=O)[C@H](CCC(N)=O)NC(=O)C(C)(C)NC(=O)[C@H](C)NC(=O)C(C)(C)N)C(=O)N[C@@H](CCCNC(=N)N)C(=O)N[C@@H](CCCNC(=N)N)C(=O)N[C@@H](CC(N)=O)C(=O)NC(C)(C)C(=O)N[C@@H](C)C(=O)NC(C)(C)C(N)=O [CPP11] (HELM PEPTIDE1{[Aib].A.[Aib].Q.A.R.R.N.[Aib].A.[Aib].Q.A.R.R.N.[Aib].A.[Aib].Q.A.R.R.N.[Aib].A.[Aib].Q.A.R.R.N.[Aib].A.[Aib].[am]}$$$$V2.0; N-terminus assumed),accumulation efficiency in the ear,"[1]; IV 5 mg/kg, 1 hour, compared with CPP14, 15 and 17",much higher accumulation efficiency in the ear
same,bioaccumulation,"[1]; IV 5 mg/kg, 4 hours, comparison with existing CPPs",accumulated in the ear tissue at a significantly high level
same,in-vivo targeting site,"[1]; IV 10 mg/kg, 30 minutes and 6 hours",targeted the ear
same,cytotoxicity (WST-8),[2],hardly show cytotoxicity
same,cellular uptake efficiency relative to Tat,"[3]; HeLa, 30 μM, 4 hours, FAM-labeled, MFI",≥ 4 times
same,MFI / uptake efficiency versus concentration,"[3]; Hela cells, 4-500 μM",uptake efficiency increases gradually with the concentration
same,cellular uptake efficiency relative to Tat,[4],≥ 4 times
same,cellular uptake efficiency relative to Tat,[5],≥ 4 times
same,secondary structure / helix stabilization by CD,"[6]; 10 mM potassium phosphate, pH 7.4, 20° C.",perfect α-helical structure
same,dependence of [θ]222/[θ]208 on concentration,"[6]; 5-200 μM, 20° C.",not affected by concentration
same,melting temperature (CD thermal unfolding),[7],39.4 °C
same,cellular localization,[8],mainly located outside the nucleus
same,time to accumulation in the ear,[9]; IV 10 mg/kg,≤ 4 h
same,excretion route,"[9]; IV 10 mg/kg, 4 hours",excreted out of the body through the liver and kidneys
same,accumulation in the head (outside and inside),"[9]; IV 10 mg/kg, 4 hours, versus PBS, 10 mg/kg","accumulated effectively in the facial area, especially in the ear, in large quantities; also recorded: accumulated deeply not only in the ear but also in the nose"
same,"accumulation in heart, lung and spleen",[9]; [10],"not accumulated in the heart, lung and spleen tissues"
same,accumulation rate in the brain,[9]; [10],very low
same,main target organ,[9]; [10],targets mainly the ear
same,accumulation in the inner ear (cochlea),"[9]; separated cochlea, IV, versus PBS (w/o treatment)",significantly remarkable accumulation in the inner ear (cochlea)
